From US9370764B2, “Compositions and particles containing cellulosic fibers and stabilized-and/or activated-urease inhibitors, as well as methods of making and using the same” (INTERNATIONAL PAPER COMPANY, priority 2007, dated 2016)

Experiment: On-shelf aging of PPDA treated pulp at room conditions
Type: physicochemical
Settings: pulp treated with 400 ppm PPDA
Protocol: Bleached softwood pulps that were treated with 400 ppm PPDA was stored on shelf as dry pulp in ambient conditions for 18 weeks and 20 weeks. The aged pulp samples were then fluffed and tested for ammonia generation by bacteria as in Example 1.
Aging test was also conducted on-shelf in the bag at room conditions. The result was shown in Table 12, and plotted in FIG. 5 in log scale.

NP(N)(=O)Oc1ccccc1 [PPDA, phenylphosphorodiamidate]
PPDA remaining on the pulp (HPLC) (stored on shelf as dry pulp in ambient conditions for 18 weeks): trace amount | PPDA remaining on the pulp (HPLC) (stored on shelf as dry pulp in ambient conditions for 20 weeks): no PPDA remaining
